According to PubChem BioAssay (NCI):
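Each compound was tested at five concentrations against cells in 96-well plates for 48 hours. The concentration for full growth arrest is given as TGI.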

What was measured:
Assay in all cases: growth of human tumour cells (NCI), 48 h
K-562 leukemia = tested on: K-562 leukemia
IGROV1 ovarian = tested on: IGROV1 ovarian
HOP-92 NSCLC = tested on: HOP-92 NSCLC
SNB-19 CNS = tested on: SNB-19 CNS
MCF7 breast = tested on: MCF7 breast
KM12 colon = tested on: KM12 colon
UO-31 renal = tested on: UO-31 renal
RPMI-8226 leukemia = tested on: RPMI-8226 leukemia
HCC-2998 colon = tested on: HCC-2998 colon
MDA-MB-435 = tested on: MDA-MB-435

Q: Which results are given for `O=C(O)CN1C(=O)c2ccc(NC(=O)C(=O)O)cc2S1(=O)=O`?
A: TGI (K-562 leukemia): > 100 µM; TGI (IGROV1 ovarian): > 100 µM; TGI (HOP-92 NSCLC): > 100 µM; TGI (SNB-19 CNS): > 100 µM; TGI (MCF7 breast): > 100 µM; TGI (KM12 colon): > 100 µM; TGI (UO-31 renal): > 100 µM; TGI (RPMI-8226 leukemia): > 100 µM; TGI (HCC-2998 colon): > 100 µM; TGI (MDA-MB-435): > 100 µM

Q: With `COC(=O)c1ccccc1C1CN=NC12Cc1ccc(C)cc1C2=O` (stereo not given) as the molecule, how does the TGI (K-562 leukemia) read?
A: The TGI was over 100 µM.

Q: What about the TGI (IGROV1 ovarian) of the same molecule?
A: The TGI was over 100 µM.

Q: What about the TGI (HOP-92 NSCLC) of the same molecule?
A: Its TGI is over 100 µM.

Q: What about the TGI (SNB-19 CNS) of the same molecule?
A: Its TGI is over 100 µM.

Q: And the TGI (MCF7 breast)?
A: Its TGI is over 100 µM.

Q: And the TGI (KM12 colon)?
A: Its TGI is over 100 µM.

Q: What about the TGI (UO-31 renal) of the same molecule?
A: The TGI was over 100 µM.

Q: And the TGI (RPMI-8226 leukemia)?
A: The TGI was over 100 µM.

Q: And the TGI (HCC-2998 colon)?
A: The TGI was over 100 µM.

Q: What about the TGI (MDA-MB-435) of the same molecule?
A: Its TGI is over 100 µM.

Q: How did the TGI (K-562 leukemia) turn out when `CC1=NN(c2nc(N)nc(CO)n2)C(C)(C)C1` was run?
A: The TGI was over 100 µM.

Q: And the TGI (IGROV1 ovarian)?
A: Its TGI is over 100 µM.

Q: And the TGI (HOP-92 NSCLC)?
A: The TGI was over 100 µM.

Q: And the TGI (SNB-19 CNS)?
A: The TGI was over 100 µM.

Q: And the TGI (MCF7 breast)?
A: Its TGI is over 100 µM.

Q: And the TGI (KM12 colon)?
A: Its TGI is over 100 µM.

Q: And the TGI (UO-31 renal)?
A: Its TGI is over 100 µM.

Q: What about the TGI (RPMI-8226 leukemia) of the same molecule?
A: Its TGI is over 100 µM.

Q: What about the TGI (HCC-2998 colon) of the same molecule?
A: The TGI was over 100 µM.

Q: What about the TGI (MDA-MB-435) of the same molecule?
A: Its TGI is over 100 µM.

Q: How did the TGI (K-562 leukemia) turn out when `COC(=O)CN1CCN(c2cccc3c2CCCC3)CC1` was run?
A: The TGI was over 100 µM.

Q: And the TGI (IGROV1 ovarian)?
A: Its TGI is over 100 µM.

Q: And the TGI (HOP-92 NSCLC)?
A: The TGI was 15.4 µM.

Q: What about the TGI (SNB-19 CNS) of the same molecule?
A: The TGI was over 100 µM.

Q: And the TGI (MCF7 breast)?
A: The TGI was 94.3 µM.

Q: What about the TGI (KM12 colon) of the same molecule?
A: The TGI was over 100 µM.

Q: And the TGI (UO-31 renal)?
A: The TGI was over 100 µM.

Q: And the TGI (RPMI-8226 leukemia)?
A: Its TGI is 85.8 µM.

Q: And the TGI (HCC-2998 colon)?
A: The TGI was 85.3 µM.

Q: And the TGI (MDA-MB-435)?
A: Its TGI is over 100 µM.

Q: What does the source list for `Nc1nc(Sc2ccc([N+](=O)[O-])c3nonc23)c2[nH]cnc2n1`?
A: TGI (K-562 leukemia): 2.41 µM; TGI (IGROV1 ovarian): 17.1 µM; TGI (HOP-92 NSCLC): 10.5 µM; TGI (SNB-19 CNS): 31.4 µM; TGI (MCF7 breast): 12 µM; TGI (KM12 colon): 15.3 µM; TGI (UO-31 renal): 2.07 µM; TGI (RPMI-8226 leukemia): 5.62 µM; TGI (HCC-2998 colon): 7.93 µM; TGI (MDA-MB-435): 12 µM

Q: For `Clc1ccc(-c2cn3c(nc4ccccc43)c(-c3ccccc3)n2)cc1`, which TGI (K-562 leukemia) is on record?
A: Its TGI is over 100 µM.

Q: And the TGI (IGROV1 ovarian)?
A: The TGI was over 78.3 µM.

Q: And the TGI (HOP-92 NSCLC)?
A: Its TGI is 40.9 µM.

Q: What about the TGI (SNB-19 CNS) of the same molecule?
A: Its TGI is 32.6 µM.

Q: What about the TGI (MCF7 breast) of the same molecule?
A: Its TGI is over 100 µM.

Q: And the TGI (KM12 colon)?
A: The TGI was over 100 µM.

Q: And the TGI (UO-31 renal)?
A: Its TGI is over 60 µM.

Q: And the TGI (RPMI-8226 leukemia)?
A: The TGI was over 100 µM.

Q: And the TGI (HCC-2998 colon)?
A: The TGI was over 100 µM.

Q: What about the TGI (MDA-MB-435) of the same molecule?
A: Its TGI is over 100 µM.

Q: For `CC(=O)N[C@@H](Cc1ccc(O)cn1)C(=O)NCc1ccc(Cl)cc1`, which TGI (K-562 leukemia) is on record?
A: Its TGI is over 100 µM.

Q: What about the TGI (IGROV1 ovarian) of the same molecule?
A: The TGI was over 100 µM.

Q: And the TGI (HOP-92 NSCLC)?
A: The TGI was over 100 µM.

Q: And the TGI (SNB-19 CNS)?
A: The TGI was over 100 µM.

Q: What about the TGI (MCF7 breast) of the same molecule?
A: Its TGI is over 100 µM.

Q: And the TGI (KM12 colon)?
A: The TGI was over 100 µM.

Q: What about the TGI (UO-31 renal) of the same molecule?
A: Its TGI is over 100 µM.

Q: What about the TGI (RPMI-8226 leukemia) of the same molecule?
A: Its TGI is over 100 µM.

Q: What about the TGI (HCC-2998 colon) of the same molecule?
A: Its TGI is over 100 µM.

Q: And the TGI (MDA-MB-435)?
A: The TGI was over 100 µM.

Q: `O=c1cc(NNc2cccc3ccccc23)[nH]c(=O)[nH]1` was tested. Which TGI (K-562 leukemia) did it give?
A: The TGI was over 100 µM.

Q: And the TGI (IGROV1 ovarian)?
A: The TGI was 29.2 µM.

Q: And the TGI (HOP-92 NSCLC)?
A: The TGI was 31.7 µM.

Q: And the TGI (SNB-19 CNS)?
A: The TGI was 29 µM.

Q: And the TGI (MCF7 breast)?
A: Its TGI is 4.74 µM.

Q: And the TGI (KM12 colon)?
A: The TGI was 29.9 µM.

Q: What about the TGI (UO-31 renal) of the same molecule?
A: The TGI was 29.8 µM.

Q: And the TGI (RPMI-8226 leukemia)?
A: Its TGI is 33.3 µM.

Q: What about the TGI (HCC-2998 colon) of the same molecule?
A: The TGI was 35.6 µM.

Q: What about the TGI (MDA-MB-435) of the same molecule?
A: Its TGI is 30.7 µM.

Q: With `CO[C@@]12C[C@H](CNC(=O)c3ccc[nH]3)O[C@@H]1NC(=O)N2` as the molecule, how does the TGI (K-562 leukemia) read?
A: Its TGI is over 100 µM.

Q: What about the TGI (IGROV1 ovarian) of the same molecule?
A: The TGI was over 100 µM.

Q: What about the TGI (HOP-92 NSCLC) of the same molecule?
A: Its TGI is over 100 µM.

Q: And the TGI (SNB-19 CNS)?
A: Its TGI is over 100 µM.

Q: What about the TGI (MCF7 breast) of the same molecule?
A: Its TGI is over 100 µM.

Q: And the TGI (KM12 colon)?
A: Its TGI is over 100 µM.

Q: And the TGI (UO-31 renal)?
A: The TGI was over 100 µM.

Q: And the TGI (RPMI-8226 leukemia)?
A: The TGI was over 100 µM.

Q: And the TGI (HCC-2998 colon)?
A: Its TGI is over 100 µM.

Q: What about the TGI (MDA-MB-435) of the same molecule?
A: Its TGI is over 100 µM.

Q: Which results are given for `CC(=O)c1csc2c1C(=O)c1ccccc1C2=O`?
A: TGI (K-562 leukemia): > 100 µM; TGI (IGROV1 ovarian): 6.42 µM; TGI (HOP-92 NSCLC): 89.1 µM; TGI (SNB-19 CNS): 5.06 µM; TGI (MCF7 breast): 5.22 µM; TGI (KM12 colon): 3.68 µM; TGI (UO-31 renal): 6.13 µM; TGI (RPMI-8226 leukemia): 89.9 µM; TGI (HCC-2998 colon): 3.2 µM; TGI (MDA-MB-435): 3.97 µM

Q: For `CC(=O)OCC1OC(OCCCOP(=O)(OCCC#N)OCC2OC(n3cnc4c(N)ncnc43)C(OC(=O)c3ccccc3)C2OC(=O)c2ccccc2)C(OC(C)=O)C(OC(C)=O)C1OC(C)=O` (stereo not given), which TGI (K-562 leukemia) is on record?
A: Its TGI is over 100 µM.

Q: And the TGI (IGROV1 ovarian)?
A: The TGI was over 100 µM.

Q: And the TGI (HOP-92 NSCLC)?
A: The TGI was over 100 µM.

Q: What about the TGI (SNB-19 CNS) of the same molecule?
A: The TGI was over 100 µM.

Q: And the TGI (MCF7 breast)?
A: Its TGI is over 100 µM.

Q: And the TGI (KM12 colon)?
A: The TGI was over 100 µM.

Q: What about the TGI (UO-31 renal) of the same molecule?
A: Its TGI is over 100 µM.

Q: What about the TGI (RPMI-8226 leukemia) of the same molecule?
A: The TGI was over 100 µM.

Q: And the TGI (HCC-2998 colon)?
A: The TGI was over 100 µM.

Q: And the TGI (MDA-MB-435)?
A: Its TGI is over 100 µM.

Q: What does the source list for `Nc1nc(Cl)c(CO)c(NCC2(CO)CCC2)n1`?
A: TGI (K-562 leukemia): > 100 µM; TGI (IGROV1 ovarian): > 100 µM; TGI (HOP-92 NSCLC): > 100 µM; TGI (SNB-19 CNS): > 100 µM; TGI (MCF7 breast): > 100 µM; TGI (KM12 colon): > 100 µM; TGI (UO-31 renal): > 100 µM; TGI (RPMI-8226 leukemia): > 100 µM; TGI (HCC-2998 colon): > 100 µM; TGI (MDA-MB-435): > 100 µM

Q: `O=C(/C=C/c1ccc(-c2ccccc2)cc1)NCc1ccc(C(=O)NCCc2ccccc2)cc1` was tested. Which TGI (K-562 leukemia) did it give?
A: Its TGI is over 100 µM.

Q: And the TGI (IGROV1 ovarian)?
A: The TGI was over 100 µM.

Q: And the TGI (HOP-92 NSCLC)?
A: Its TGI is over 100 µM.

Q: And the TGI (SNB-19 CNS)?
A: The TGI was over 100 µM.

Q: And the TGI (MCF7 breast)?
A: The TGI was over 100 µM.

Q: And the TGI (KM12 colon)?
A: Its TGI is over 100 µM.

Q: And the TGI (UO-31 renal)?
A: Its TGI is over 100 µM.

Q: What about the TGI (RPMI-8226 leukemia) of the same molecule?
A: Its TGI is over 100 µM.

Q: What about the TGI (HCC-2998 colon) of the same molecule?
A: The TGI was over 100 µM.

Q: And the TGI (MDA-MB-435)?
A: The TGI was over 100 µM.
